From US10045531B2, “Use of one or more fatty acid esters as insecticide and/or arachnicide” (Oleon NV, priority 2014, dated 2018)

Experiments:
Rhopalosiphum padi = assay: Efficacy on aphids on infested wheat seedlings, spray treatment; type: in vivo; settings: sprayed on wheat seedlings
Experimental: The trial was carried out on wheat infected with aphids.
Rhopalosiphum padi aphids are reared on wheat in the laboratory. The rearing conditions are as follows: 14 hrs in the light at 18° C., and 10 hrs in darkness at 15° C. at a relative humidity (RH) of 60-70%.
“Triticum aestivum” wheat of the Apache variety is grown under the following conditions: 14 hrs in the light at 18° C., and 10 hrs in darkness at 15° C. at a relative humidity (RH) of 60-70%. For the experiments, seedlings having reached stage 12 on the BBCH-scale, i.e. 2 leaves, are chosen.
On D-1, 3 adult aphids are placed on each wheat seedling (approximately 30 seedlings per dose tested). The seedlings are kept for 14 hrs in the light at 18° C., and 10 hrs in darkness at 15° C. at a relative humidity (RH) of 60-70%.
On day D, the seedlings are treated with a composition as described in Example 1.a.). Emulsions containing the following doses of isoamyl laurate were tested: 1.35 L/ha (N/4), 2.7 L/ha (N/2), […] (N), 10.8 L/ha (2N) and 16.2 L/ha (3N). Two controls are carried out: a first control using water and a second control using the adjuvant, tested alone, at a dose of 1.8 L/ha, which corresponds to the dose of adjuvant contained in dose 3N of isoamyl laurate. The volume of composition sprayed corresponds to the equivalent of 200 L/ha.
For the treatment, nozzles are used to spray the different emulsions and to produce a good distribution of the drops over the plants (TeeJet 100015-VS flat spray nozzle used on a Euro-Pulvé laboratory sprayer).
On D+1, D+3, D+7, the adults and larvae present on each seedling are counted.
Statistical analysis is carried out using XLSTATS and a variance analysis is carried out using a Newman-Keuls and a Dunnett's test. The Dunnett's tests used post hoc following an ANOVA give a probability of 0.00.
The seedlings are treated on day D with a composition as described in Example 1.b). An emulsion containing the following dose of 2-ethylhexyl caprate was tested: 16.2 L/ha (3N). […]

Ostrinia nubilalis = assay: Efficacy on the European corn borer on corn leaves, spray treatment; type: in vivo; settings: dose 6.0 L/ha, composition 1.a, counted on D+3
Experimental: The test was carried out on corn infected by the European corn borer. Egg clusters from Ostrinia nubilalis are kept under controlled laboratory conditions in order to allow the eggs to develop. The eggs are kept for 14 hrs in the light and at 18° C., and for 10 hrs in the dark at 15° C. at a relative humidity varying from 60 to 70%. After emerging, the larvae at the 1st and 2nd instar stages are used in the experiment. “Zea Mays” corn of the variety DK315 is grown under the following conditions: 14 hrs in the light at 18° C., and 10 hrs in darkness at 15° C. at a relative humidity (RH) of 60-70%. On D-1, 3 corn leaves are taken from the seedlings and placed in ventilated plastic boxes. 10 larvae are then placed onto the corn leaves in each box, the trial being repeated three times. The larvae are kept for 14 hrs in the light at 18° C., and 10 hrs in darkness at 15° C. at a relative humidity (RH) of 60-70%. The leaves are treated on day D with a composition as described in Example 1.a) with a dose of isoamyl laurate equivalent to 6.0 L/ha. For the treatment, nozzles are used to spray the composition in example 1.a) and to produce a good distribution of the drops onto the plants (TeeJet 110015-VS flat spray nozzle used on a Euro-Pulvé laboratory sprayer). […] On D+3, the larvae and adults present in each box are counted. […]

[1] = test system: Pollen beetles Meligethes aeneus, susceptible; assay: Efficacy on pollen beetles, coated glass phial, IRAC method no.11, susceptible strains; type: in vivo; settings: after 24 hrs
Experimental: (§1) The efficacy of isoamyl laurate against pollen beetles has been evaluated according to a protocol based on IRAC (Insecticide Resistance Action Committee) method no.11, version 3, June 2009.
(§2) Pollen beetles are collected from different locations in infested fields. They are then kept in ventilated plastic boxes, in the bottom of which a dry paper has been placed. A number of oilseed rape leaves as well as 2 to 3 oilseed rape in flower are added as a food source. As it is important that the pollen beetles are not subjected to excessive temperatures, to humid conditions or other sources of stress following collection, they are kept under the following conditions: 14 hrs in the light at 18° C., and 10 hrs in darkness at 15° C. at a relative humidity (RH) of 60-70%.
(§3) The isoamyl laurate product was solubilized in acetone. Each solution was then placed in a homogeneous manner on the inside of a glass phial 2 cm in diameter and 4 cm in height, until the acetone has completely evaporated. The quantity of insecticide provided by 0.5 mL of acetone solution is calculated in such a way that a unit of area of the phial is covered with the same quantity of insecticide as that carried by the same unit of area of a leaf belonging to a field having undergone a treatment at 200 L/ha.
(§4) 10 pollen beetles are introduced into each phial, each trial being carried out twice.
(§5) Mortality is evaluated after 24 hrs.

[2] = test system: Pollen beetles Meligethes aeneus, strains resistant to pyrethroids; assay: Efficacy on pollen beetles, coated glass phial, IRAC method no.11, strains resistant to pyrethroids; type: in vivo; settings: after 24 hrs
Experimental: as §1, §2, §3, §4, §5

[3] = test system: Leptinotarsa decemlineata; assay: Efficacy on Colorado potato beetle larvae, leaf soaking, IRAC method no.7; type: in vivo; settings: dose 6.0 L/ha, composition 1.a, L4 larvae, mortality after 5 hrs
Experimental: The efficacy of isoamyl laurate on Colorado potato beetles has been evaluated according to a protocol based on IRAC (Insecticide Resistance Action Committee) method no.7, version 3, June 2009. Eggs from the Colorado potato beetle are collected from fields and placed on the lower (abaxial) surface of potato leaves. After 4 to 15 days, the hatching of the eggs takes place, producing dark red-brown larvae. Potato leaves are treated by soaking for 5 seconds in a composition as described in Example 1.a) at a dose of isoamyl laurate equivalent to 6.0 L/ha. The potato leaves are infested on the abaxial face thereof with 5 Colorado potato beetle larvae at stage L4. Each trial is repeated a second time. Mortality is evaluated after 5 hrs. At a dose of 6.0 L/ha of isoamyl laurate, 10% efficacy is obtained on the Colorado potato beetle larvae.

[4] = Trials comparing a concentrate containing isoamyl laurate with a commercial insecticide containing Lambda-cyhalothrin; settings: concentrate containing isoamyl laurate vs commercial insecticide containing Lambda-cyhalothrin
Description: Preferably, in the concentrates according to the invention, the insecticide and/or arachnicide compound of formula (I) is 3-methylbutyl dodecanoate (isoamyl laurate).

[5] = dose 3N (16.2 L/ha) on D+1, composition with Actirob B adjuvant

In the case of CCCCCCCCCC(=O)OCC(CC)CCCC (stereo not shown) [2-ethylhexyl caprate], the efficacy (Rhopalosiphum padi; [5]) is reported as roughly 55%.

In the case of CCCCCCCCCCCCCCCC(=O)OCC(CC)CCCC (stereo not shown) [2-ethylhexyl palmitate, reference compound], the efficacy (Rhopalosiphum padi; [5]) is reported as “approximately 10%”.

In the case of CCCCCCCCCCCC(=O)OCCC(C)C [isoamyl laurate, 3-methylbutyl dodecanoate], the efficacy (Rhopalosiphum padi; dose 3N (16.2 L/ha), composition 1.a with Actirob B adjuvant, FIG. 2) is reported as roughly 80%, the “efficacy against the larvae and adults” value (Ostrinia nubilalis) is reported as 19.5% and the “Efficacy (%) Susceptible” value ([1]; dose 2.0 L/ha) is reported as 55%. The “Efficacy (%) Susceptible” value ([1]; dose 4.0 L/ha) was 90%, the “Efficacy (%) Strains resistant to pyrethroids” value ([2]; dose 2.0 L/ha) was 40% and the “Efficacy (%) Strains resistant to pyrethroids” value ([2]; dose 4.0 L/ha) was 75%. For the same compound, the “efficacy (mortality) on larvae” value [3] was 10% and the “toxicity (aquatic toxicity, toxicity in humans through inhalation, irritation of the skin and eyes)” value [4] was “less toxic”.
